Here are results for 87 compounds from a melting point compilation (Tetko et al.; mined from patent text by program, amines drawn as free bases though some values may be those of a salt).

A value given as a limit tells only on which side of the number the result lay.

In the case of `OCCCN1CCC(c2noc3cc(F)ccc23)CC1`, the melting point was 140 to 142 °C. For the compound `Fc1ccccc1C1=NCCN(C2=NCCO2)c2ccc(Cl)cc21`, the melting point lay within 162 to 164 °C. Next, `CCN1c2ncccc2C(=O)Nc2c(C)cc(N3CCC(OC(C)=O)C3)nc21` (configuration not stated): 188 to 190 °C; `COC(=O)c1nnc(NC(=O)CCCOc2cccc(CN3CCCCC3)c2)n1C`: 108 to 110 °C; `O=C1CCN(Cc2ccc([N+](=O)[O-])cc2)C(=O)C1=C1SC=CS1`: 192 to 193 °C. In turn, `CN(C(=O)c1cn2cc(-c3ccc(Cl)cc3)ccc2n1)C(Cc1ccc(OCc2ccccc2)cc1)C(=O)O` (configuration not stated) returned a melting point of 216 °C.

In the case of `C=CCC(C)(C)C(NC(=O)c1ccc(Cl)cc1)NC(=NC#N)Nc1cccnc1` (configuration not stated), the melting point was 97 to 98 °C.

Consider `COc1ccc(CN(CCN(C)C)c2ccc(C(=O)O)cn2)cc1`, for which the melting point fell in the range of 188 to 190 °C. Consider `COc1ccc(CNn2nnc3c(Cl)ncnc32)cc1`, for which the melting point was in the range of 110 to 112 °C. Compound `CN(C)c1ccc(CN(C(=O)C2CCCc3c(O)cccc32)c2ccccc2)cc1` (configuration not stated) displayed a melting point of 138 to 143 °C. In turn, `CC(=O)Nc1nc2c(Oc3cc(-c4ccc(C(F)(F)F)cc4OCc4ccccc4)ncn3)cccc2s1` came in with a melting point of 201 to 203 °C.

`FC(F)(F)c1cc(C#CCBr)cc(C(F)(F)F)c1` yielded a melting point of 30 to 31 °C. With `CC(C)(C)CC(C)(C)c1ccc(Oc2cc3nc(-c4ccccc4)oc3cc2[N+](=O)[O-])cc1` the figure was 183 to 185 °C; with `Nc1sccc1C(=O)c1ccc(Cl)cc1`, 178 to 180 °C. Consider `CC(C)c1nc(CO)n(C)c1Sc1cc(Cl)cc(Cl)c1`, for which the melting point lay within 157 to 158 °C.

`COc1cc([N+](=O)[O-])c2c3c(c4ccccc4nc13)C=CN2` returned a melting point of 220 to 223 °C. With `COC(=O)c1ccc(-c2ccc3cc4c(cc3c2)C(C)(C)CCC4(C)C)cc1O` the figure was 145 to 146 °C; with `CCOC(=O)CN(C(=S)Nc1cc(Cl)ccc1C)c1ccccc1`, 148 to 150 °C. In turn, `Fc1ccc(-c2nc3c(c(=S)[nH]2)CCCC3)cc1` returned a melting point of 198 to 200 °C.

`CCCCn1c(=O)c2c(ncn2S(=O)(=O)c2ccc(C(C)(C)C)cc2)n(CCCC)c1=O` registered a melting point of 105 to 107 °C. With `O=C1Nc2ccc(Cl)cc2C(c2ccccc2)N1C1CCN(Cc2ccccc2)CC1` (configuration not stated) the figure was more than 230 °C; with `CC(C)(C)CNC=Nc1ccc(-c2c[nH]cn2)cc1Br`, 151 to 154 °C. Regarding `CNC(=O)C(Cc1ccc(OC)cc1)NC(=O)C(CC(C)C)C(CC(=O)OC(C)(C)C)SC(C)=O` (configuration not stated), the melting point lay in the range of 147 to 151 °C. As to `C=C(CC(=O)OCC)c1cc(F)c2cc(OC)ccc2c1`, the melting point lay in the range of 50 to 52 °C.

In the case of `COC(=O)c1c[nH]c(Sc2cc(Cl)c(Cl)cc2Cl)c1`, the melting point lay in the range of 165 to 175 °C. With `CC(C)c1cccc(C(C)C)c1NC(=O)Nc1nc(-c2ccccc2)ns1` the figure was 180 to 183 °C.

On to `COc1ccc(Cl)cc1C(=O)NCCc1ccc(-c2cc(C)cs2)c(S(N)(=O)=O)c1`, for which the melting point lay in the range of 165 to 168 °C.

Consider `O=C1N(Cc2ccc3nonc3c2)c2ccccc2C12COc1cc3c(cc12)OCO3` (configuration not stated), for which the melting point was in the range of 163 to 165 °C. `O=C(Cl)C=Cc1cccc([N+](=O)[O-])c1` yielded a melting point of 81 to 83.5 °C. With `CCc1c(C(C)C)cc(C(C)C)c(CO)c1-c1ccc(F)cc1` the figure was 106 to 108 °C; with `O=[N+]([O-])c1ccccc1Oc1ccc(Cl)cc1`, 33 to 35 °C; with `O=Cc1c(O)cccc1OCCCC(=O)O`, 151 to 153 °C. Turning to `COc1ccc(OCCCCl)c(C2(SC)Sc3ccccc3N(C)C2=O)c1` (configuration not stated), the melting point is 135 to 137 °C. Regarding `O=C1c2c(c(=O)n3nc(-c4ccccc4)cc3n2Cc2ccccc2)CN1Cc1ccccc1`, the melting point was in the range of 232 to 234 °C. With `CN1CCN(c2ccnc3c(NC(=O)c4c(Cl)cccc4Cl)cc(Cl)cc23)C1=O` the figure was more than 250 °C; with `Cn1c(C(F)(F)F)cc(=O)n(-c2cc(OC3CCCC3)c(Cl)cc2F)c1=O`, 118 to 120 °C. With `Nc1ccc(Sc2ccccc2)nc1N` the figure was 119 to 122 °C; with `CC(C)(C)c1ccc(-c2cc(C(=O)/C=C/c3ccc(C(=O)O)cc3)cc3c2C(C)(C)CCC3(C)C)cc1`, 241 °C. Next, `CCC[C@H]1CC[C@H](c2ncc(C(=O)O)cn2)CC1`: 184 to 186 °C.

Compound `CCCCC(=O)N(Cc1ccc(-c2ccccc2-c2nc(=O)o[nH]2)cc1)c1sccc1C(=O)OC` came in with a melting point of 154 to 155 °C. With `Cc1cccc2c1N(CC(=O)N1CC3CCC(CC3)C1)C(=O)C(NC(=O)Nc1cccc(C(=O)O)c1)N=C2c1ccccc1F` (configuration not stated) the figure was 197 to 204 °C. In turn, `CCCc1c(OCCCCC2CC(=O)c3ccc(OCC(=O)O)c(CCC)c3O2)ccc(C(C)=O)c1O` (configuration not stated) registered a melting point of 164 to 167 °C.

As for `O=C(O)c1cnc(NCc2cccs2)nc1-c1ccccc1`, the melting point lay within 212 to 213 °C.

`COc1nn(C(=S)Oc2ccccc2)c(=O)n1N` gave a melting point of 158 °C. With `Cc1c(OCC(C)(C)CS(N)(=O)=O)nn2ncnc2c1C` the figure was 175 to 177 °C; with `CCc1ccc2c(c1)C(c1ccccc1F)=NCc1cnc(C)n1-2`, 152 to 154 °C; with `O=C1CCCC(c2ccc(O)c(O)c2)N1c1ccc(Cl)cc1` (configuration not stated), 205 to 207 °C.

Turning to `COc1ccccc1C1CCC(=O)C=C1C(=O)O` (racemic), the melting point turned out to be 177 °C.

Consider `Cc1nnc2n1-c1sc(C(C)OC(=O)C=Cc3ccccc3)cc1C(c1ccccc1Cl)=NC2` (configuration not stated), for which the melting point fell in the range of 122 to 125 °C.

Turning to `Cc1cc(NC(=O)C2(C)CC2)ccc1OC(C)C`, the melting point was in the range of 99 to 101 °C. `CCN1c2ncc(COc3cccc(OC)c3)cc2C(=O)N(C)c2ccc(Cl)nc21` came in with a melting point of 95 to 97 °C.

For the compound `CCOC(=O)C=Cc1cn(C(=O)OC(C)(C)C)c2cnc(-n3cncn3)cc12`, the melting point lay in the range of 178 to 181 °C. The compound `C=C1C(=C)C2OC1C1=C2Cc2c(OC)ccc(OC)c2C1` registered a melting point of 177 to 178 °C. As to `Cc1oc(-c2ccccc2)nc1CCOc1ccc(C[C@@H](C(=O)O)N2CCN(c3ccccc3)CC2)cc1`, the melting point is 218 to 220 °C. On to `COC(=O)Nc1cc(-c2nccs2)[nH]c1C(CC1CCOCC1)c1ccc(S(=O)(=O)C2CC2)cc1` (configuration not stated), for which the melting point was 120 to 122 °C. Next, `Cn1nc(-c2ccc(Cl)c(NS(C)(=O)=O)c2)c2ccccc2c1=O`: 234 to 236 °C.

As for `Cc1cc(-c2cc(C(F)F)nn2-c2ccc(S(C)(=O)=O)c(F)c2)ccc1-c1cscn1`, the melting point came to 123 °C.

Compound `CCS(=O)(=O)Nc1ccc(Cc2ccc(NC3=NCCN3)cc2)cc1` yielded a melting point of 178 °C. `O=c1cc(-c2ccc(O)cc2[N+](=O)[O-])oc2ccccc12` yielded a melting point of 277 to 279 °C. Consider `CCCCc1ccc(C2(O)CN3CCC2CC3)o1` (configuration not stated), for which the melting point was 94 to 96 °C. `CCOC(=O)c1cc(Br)cc2c(=O)cc(-c3cccc(OCc4ccc5ccccc5c4)c3)oc12` registered a melting point of 211 to 213 °C. Next, `CCCc1nc(C)cc(=O)n1CCOc1ccc(C=C2SC(=O)NC2=O)cc1`: 240 to 242 °C. With `O=C(O)c1cc2cc(Cl)ccc2nc1N[C@@H](Cc1ccc(OCc2ccccc2)cc1)C(=O)O` the figure was 169 to 171 °C; with `O=C(O)C1Oc2ccc(Cl)cc2C(C2CCCCC2)(C2CCCCC2)O1` (configuration not stated), 208 °C. Next, `CC(C)(C)c1cc(SCCC(=O)NNC=O)cc(C(C)(C)C)c1O`: 158 to 159 °C. Take `CC(C)OCc1cnc2c(N)cccc2c1Cl`: the melting point was in the range of 94 to 95 °C. On to `COc1ccc(-c2cc(-c3ccc(F)cc3)ccc2C(=O)O)cc1OC`, for which the melting point was determined as 210 °C.

In the case of `COc1ccc(Oc2c(C)noc2NS(=O)(=O)c2ccccc2)cc1`, the melting point lay in the range of 128 to 130 °C. With `C=C(C)Cc1c(C)c(OC(C)=O)c(C)c(C)c1O` the figure was 109 to 110 °C; with `CCCCCCCCCCCCCCCCCC(=O)NCCOC(=O)C1=CC(C(C)(C)C)C(O)(C(C)(C)C)C=C1` (configuration not stated), 56 to 58 °C. Next, `CN1Cc2c(C#Cc3ccccc3Cl)ncn2-c2ccc(F)cc2C1=O`: 259 to 261 °C; `Cc1nc(NN)c2c(n1)NC(=O)CO2`: 262 to 264 °C; `CN1C(C(=O)Nc2ccc(Cl)ccc2=O)=C(O)c2sccc2S1(=O)=O`: 243 to 245 °C. `CCCc1c(O)ccc2oc(Cc3ccc(O)cc3)c(C)c12` yielded a melting point of 138 to 142 °C. `CCOC(=O)c1nc(O)sc1-c1ccncc1` had a melting point of 204 to 206 °C. Turning to `N#Cc1sc2c(Cl)cccc2c1Cl`, the melting point was in the range of 124 to 128 °C. Consider `CCCNC(C)=C1C(=O)OC(=O)C(C(=O)C=Cc2cccc(OC)c2OC)=C1O`, for which the melting point is 180 to 185 °C.

In turn, `CCCCCCCCCCCCCCCCCCSC(=O)Nc1ccc(NC(=O)NS(=O)(=O)c2ccc(OC)cc2)cc1` yielded a melting point of 195 °C. Take `COc1c(C(=O)NN=Cc2ccc(Cl)cc2)[nH]c2ccccc12`: the melting point lay in the range of 249 to 251 °C.

The compound `O=c1c2c(CC3CCCCC3)n[nH]c2c2cccnc2n1-c1ccccc1` had a melting point of 280 to 281 °C. With `COc1ccc(S(=O)(=O)N2CCc3cccc(-c4ccncc4)c32)cc1` the figure was 196 to 197 °C.

Compound `FC(F)(F)c1cc(Cl)ccc1N=C(Cl)n1cncn1` registered a melting point of 165 to 166 °C. With `O=C1CSCN1c1cc(Cl)cc(Cl)c1` the figure was 87 to 92 °C; with `Cc1nn(C)c(SCc2ccccc2)c1[N+](=O)[O-]`, 82 to 83 °C; with `ClCc1csc(-c2ccc(Cl)c(Cl)c2)n1`, 93 to 96 °C. `COC(=O)C(=CNc1sccc1C(=O)O)SC` showed a melting point of 192 to 194 °C. With `CC(=O)Nc1ccccc1C(=O)Nc1ccc(N2CCN3CCC2CC3)cc1` the figure was 191 °C.
